The source made the active and inactive calls. The calls are words filed in the database; no cut-off is given here.
Tests used:
MCF7 [1] = experiment: Cytotoxicity against human MCF7 cells after 72 hrs by crystal violet staining; type: functional, cell-based; conditions: MCF7, 72 h
HT-29 [2] = experiment: Cytotoxicity against human HT-29 cells after 72 hrs by crystal violet staining; type: functional, cell-based; conditions: HT-29, 72 h
MDA-MB-231 [3] = experiment: Cytotoxicity against human MDA-MB-231 cells after 72 hrs by crystal violet staining; type: functional, cell-based; conditions: MDA-MB-231, 72 h
Mus musculus [4] = experiment: Antiinflammatory activity in Kunming mouse assessed as inhibition of xylene-induced ear edema at 4 mg/kg, ip for 5 days relative to control; type: functional; conditions: 120 h, route intraperitoneal
[5] = biological target: T1, Prostaglandin G/H synthase 1 (Ovis aries) (UniProt P05979); experiment: Inhibition of isolated ovine COX-1 at 10 uM by ELISA
T1 sequence (whole entry): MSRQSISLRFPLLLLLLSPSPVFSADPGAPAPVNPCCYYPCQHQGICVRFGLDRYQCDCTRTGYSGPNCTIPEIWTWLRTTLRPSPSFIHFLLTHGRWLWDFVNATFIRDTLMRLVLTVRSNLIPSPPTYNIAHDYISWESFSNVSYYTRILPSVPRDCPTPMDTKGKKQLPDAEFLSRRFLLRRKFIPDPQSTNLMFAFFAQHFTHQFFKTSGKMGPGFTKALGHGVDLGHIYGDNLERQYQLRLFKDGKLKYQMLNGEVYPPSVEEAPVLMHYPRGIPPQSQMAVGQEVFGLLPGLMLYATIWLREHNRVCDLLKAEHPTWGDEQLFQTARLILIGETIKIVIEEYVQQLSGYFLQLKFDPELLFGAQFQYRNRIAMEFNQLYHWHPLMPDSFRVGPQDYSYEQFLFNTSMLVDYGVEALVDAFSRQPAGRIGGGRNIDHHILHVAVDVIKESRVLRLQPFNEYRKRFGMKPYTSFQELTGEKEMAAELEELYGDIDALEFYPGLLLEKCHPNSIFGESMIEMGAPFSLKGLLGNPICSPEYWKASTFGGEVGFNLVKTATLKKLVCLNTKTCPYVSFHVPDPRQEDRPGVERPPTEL

HT-29 [6] = experiment: Ratio of 5-fluorouracil IC50 to compound IC50 for human HT-29 cells; type: functional
MDA-MB-231 [7] = experiment: Ratio of 5-fluorouracil IC50 to compound IC50 for human MDA-MB-231 cells; type: functional
MCF7 [8] = experiment: Ratio of 5-fluorouracil IC50 to compound IC50 for human MCF7 cells; type: functional
MCF7 [9] = experiment: Cytotoxicity against human MCF7 cells at 0.63 to 10 uM up to 140 hrs by crystal violet staining; type: functional, cell-based
MDA-MB-231 [10] = experiment: Ratio of loratadine IC50 to compound IC50 for human MDA-MB-231 cells; type: functional
MCF7 [11] = experiment: Ratio of loratadine IC50 to compound IC50 for human MCF7 cells; type: functional
HT-29 [12] = experiment: Ratio of loratadine IC50 to compound IC50 for human HT-29 cells; type: functional
HT-29 [13] = experiment: Cytotoxicity against human HT-29 cells at 0.63 to 10 uM up to 140 hrs by crystal violet staining; type: functional, cell-based
Mus musculus [14] = experiment: Antiinflammatory activity in Kunming mouse assessed as inhibition of xylene-induced ear edema at 30 mg/kg, ip for 5 days relative to control; type: functional; conditions: 120 h, route intraperitoneal

Compound	IC50 (MCF7 [1]) [µM]	IC50 (HT-29 [2]) [µM]	IC50 (MDA-MB-231 [3]) [µM]	inhibition in vivo at 4 mg/kg (Mus musculus [4]) [%]	other results
N#C/N=C(/NCc1ccccc1)N1CCC(=C2c3ccc(Cl)cc3CCc3cccnc32)CC1	2.9	3.1	2.7	13	–
CCCCN/C(=N/C#N)N1CCC(=C2c3ccc(Cl)cc3CCc3cccnc32)CC1	3.9	4	3.1	17.4	–
COc1ccc(CCN/C(=N/C#N)N2CCC(=C3c4ccc(Cl)cc4CCc4cccnc43)CC2)cc1OC	7.1	5.7	18.2	21.7	–
O=c1[nH]cc(F)c(=O)[nH]1 [FLUOROURACIL]	4.7	–	–	–	–
CCCCCN/C(=N/C#N)N1CCC(=C2c3ccc(Cl)cc3CCc3cccnc32)CC1	3.5	4.4	1.7	13	–
N#C/N=C(/NCCc1ccccc1)N1CCC(=C2c3ccc(Cl)cc3CCc3cccnc32)CC1	2.3	3.2	2.6	13	–
COc1ccc2c(c1)c(CC(=O)O)c(C)n2C(=O)c1ccc(Cl)cc1	–	–	–	–	inhibition [5]: 56%
N#C/N=C(/NC1CCCCC1)N1CCC(=C2c3ccc(Cl)cc3CCc3cccnc32)CC1	3.9	4	1.9	17.4	–
CCCCCCCCN/C(=N/C#N)N1CCC(=C2c3ccc(Cl)cc3CCc3cccnc32)CC1	1.4	2	4.1	15.6	Ratio IC50 (HT-29 [6]): 2; Ratio IC50 (MDA-MB-231 [7]): 2; Ratio IC50 (MCF7 [8]): 2; Activity (MCF7 [9]): Active; Ratio IC50 (MDA-MB-231 [10]): 2; Ratio IC50 (MCF7 [11]): 2; Ratio IC50 (HT-29 [12]): 2; Activity (HT-29 [13]): Active
CC(N/C(=N/C#N)N1CCC(=C2c3ccc(Cl)cc3CCc3cccnc32)CC1)c1ccccc1 (centres undefined)	4	3.7	6.9	26.1	inhibition [5]: 4.9%
N#C/N=C(/NCCc1ccc2c(c1)OCO2)N1CCC(=C2c3ccc(Cl)cc3CCc3cccnc32)CC1	8	6.5	12.9	13	–
CC(C)Cc1ccc(C(C)C(=O)O)cc1 (centres undefined) [IBUPROFEN]	–	–	–	8.22	inhibition in vivo at 30 mg/kg (Mus musculus [14]): 39.1%

Source: ChEMBL document CHEMBL2086253, “Synthesis and biological evaluation of cyanoguanidine derivatives of loratadine” (Bioorg Med Chem Lett, 2012)
